# Test results reported in patent publication US20260317344A1, “EGFR INHIBITORS FOR TREATING DISEASE” (BLOSSOMHILL THERAPEUTICS, INC., priority 2023, published 2026).
# Read-outs that look alike come from different tables or passages of the source.
# Assays:
# Type in all cases: cell-based
# [1] = molecular target: T1, pEGFR, PC-9 cells (d746-750 EGFR) (Homo sapiens, UniProt P00533, DEL746-750); assay: Cellular EGFR phosphorylation assay (LANCE Ultra TR-FRET) in PC-9 cells
# T1 construct: pEGFR (Tyr1068) TR-FRET
# How it was run: (§1)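 pEGFR Tyr1068 TR-FRET readout, lysates after 4 h compound exposure (37 °C, 5% CO2); 9-dose 3-fold series. A431 only: EGF 40 ng/mL for last 10 min. IC50 from curve fit.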
# [2] = molecular target: T2, pEGFR, NCI-H1975 cells (L858R/T790M EGFR) (Homo sapiens, UniProt P00533, L858R/T790M); assay: Cellular EGFR phosphorylation assay (LANCE Ultra TR-FRET) in NCI-H1975 cells
# T2 construct: pEGFR (Tyr1068) TR-FRET
# How it was run: as §1
# [3] = molecular target: T3, pEGFR, A431 cells (wildtype EGFR) (Homo sapiens, UniProt P00533); assay: Cellular EGFR phosphorylation assay (LANCE Ultra TR-FRET) in A431 cells
# T3 construct: pEGFR (Tyr1068) TR-FRET
# How it was run: as §1
# PC-9 cells = assay: 5-Day CellTiter Glo (CTG) cell proliferation assay, PC-9; details: Homo sapiens; PC-9 cells (d746-750 EGFR), 5-day CTG proliferation, 120 hours; read-out: PC-9 IC50
# How it was run: (§2)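 Luminescent ATP signal (CellTiter-Glo 2.0) after 120 hours of compound exposure gave IC50 values. PC-9 and HCC827 harbour EGFR d746-750; NCI-H1975 harbours L858R/T790M.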
# NCI-H1975 cells = assay: 5-Day CellTiter Glo (CTG) cell proliferation assay, NCI-H1975; details: Homo sapiens; NCI-H1975 cells (L858R/T790M EGFR), 5-day CTG proliferation, 120 hours; read-out: H1975 IC50
# How it was run: as §2
# HCC827 cells = assay: 5-Day CellTiter Glo (CTG) cell proliferation assay, HCC827; details: Homo sapiens; HCC827 cells (d746-750 EGFR), 5-day CTG proliferation, 120 hours; read-out: HCC827 IC50
# How it was run: as §2
# [4] = test system: BaF3 cells with engineered EGFR L858R/T790M/C797S; assay: 3-Day CellTiter Glo (CTG) cell proliferation assay, BaF3 EGFR L858R/T790M/C797S; details: Mus musculus, 3-day CTG proliferation, 72 hours
# How it was run: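 Viability after 72 h compound exposure (9 concentrations, 37° C, 5% CO2) was measured as ATP luminescence with CellTiter-Glo 2.0 in EGFR-mutant-engineered BaF3 cells plated at one thousand cells per well. IC50 values obtained by curve fitting.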
# [5] = test system: BaF3 cells with engineered EGFR L858R/C797S; assay: 3-Day CellTiter Glo (CTG) cell proliferation assay, BaF3 EGFR L858R/C797S; details: Mus musculus, 3-day CTG proliferation, 72 hours
# Procedure: (§3) 3-DAY CellTiter Glo (CTG) Cell Proliferation Assays (BaF3 Cell Lines)
# (§4) Cell proliferation assays were carried out in BaF3 cells engineered with EGFR mutations. BaF3 cells with engineered EGFR L858R/T790M/C797S, EGFR L858R/C797S, or EGFR d746-750/T790M transgene, one thousand cells/50 μL per well were seeded in white 384-well plate, followed by treatment with indicated compounds in a 9-dose dilution series using TECAN d300e liquid dispenser. Cells were incubated with compounds for 72 hours at 37° C. and 5% CO2. Cell proliferation was measured using CellTiter-Gbo 2.0 luciferase-based ATP detection assay (Promega, Madison, WI) at 18 μL per well following the manufacturer's protocol. Plates were then read on a TECAN Sparks multimode microplate reader. Data was analyzed using GraphPad Prism 9 (GraphiPad Software, San Diego, CA) to obtain IC50 values.
# [6] = test system: BaF3 cells with engineered EGFR d746-750/T790M; assay: 3-Day CellTiter Glo (CTG) cell proliferation assay, BaF3 EGFR d746-750/T790M; details: Mus musculus; BaF3 EGFR d746-750/T790M cells, 3-day CTG proliferation, 72 hours
# Procedure: as §3, §4
# [7] = 4 hours at 37° C., read-out: PC-9 pEGFR IC50
# [8] = 4 hours at 37° C., read-out: H1975 pEGFR IC50
# [9] = 4 hours at 37° C., 40 ng/mL EGF for the final 10 minutes, read-out: A431 pEGFR IC50
# T1 sequence (P00533 with tags, fused parts or gaps DEL746-750): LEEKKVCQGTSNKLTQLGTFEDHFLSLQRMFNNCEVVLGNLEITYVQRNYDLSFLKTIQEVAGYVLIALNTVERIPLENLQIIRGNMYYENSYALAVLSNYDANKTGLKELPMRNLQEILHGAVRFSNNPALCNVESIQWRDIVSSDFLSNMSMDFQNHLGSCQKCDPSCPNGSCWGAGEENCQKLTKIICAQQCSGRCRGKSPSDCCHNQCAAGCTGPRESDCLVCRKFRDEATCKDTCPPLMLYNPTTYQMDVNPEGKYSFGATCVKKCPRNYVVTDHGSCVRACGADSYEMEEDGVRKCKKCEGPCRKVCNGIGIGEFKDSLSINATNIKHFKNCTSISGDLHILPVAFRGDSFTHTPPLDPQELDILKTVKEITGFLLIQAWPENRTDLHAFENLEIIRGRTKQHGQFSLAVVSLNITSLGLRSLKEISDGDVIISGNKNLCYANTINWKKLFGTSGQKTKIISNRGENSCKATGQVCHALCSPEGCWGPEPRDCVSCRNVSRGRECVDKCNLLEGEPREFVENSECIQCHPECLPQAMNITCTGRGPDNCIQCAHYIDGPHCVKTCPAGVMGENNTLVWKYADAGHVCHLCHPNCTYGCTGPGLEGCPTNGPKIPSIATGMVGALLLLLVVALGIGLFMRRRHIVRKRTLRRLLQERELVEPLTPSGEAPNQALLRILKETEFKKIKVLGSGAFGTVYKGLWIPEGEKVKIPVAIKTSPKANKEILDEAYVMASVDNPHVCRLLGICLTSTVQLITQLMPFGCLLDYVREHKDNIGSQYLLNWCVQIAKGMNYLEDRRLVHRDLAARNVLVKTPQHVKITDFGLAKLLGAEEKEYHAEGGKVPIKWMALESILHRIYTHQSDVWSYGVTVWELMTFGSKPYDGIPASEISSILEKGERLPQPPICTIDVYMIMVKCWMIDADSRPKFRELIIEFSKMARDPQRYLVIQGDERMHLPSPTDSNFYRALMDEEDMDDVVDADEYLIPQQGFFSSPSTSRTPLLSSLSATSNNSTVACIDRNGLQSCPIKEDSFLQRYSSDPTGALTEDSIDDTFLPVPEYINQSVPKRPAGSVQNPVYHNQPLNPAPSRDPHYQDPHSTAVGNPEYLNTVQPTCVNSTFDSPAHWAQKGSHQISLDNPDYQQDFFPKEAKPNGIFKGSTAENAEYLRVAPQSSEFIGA
# T3 sequence (P00533 25-1210): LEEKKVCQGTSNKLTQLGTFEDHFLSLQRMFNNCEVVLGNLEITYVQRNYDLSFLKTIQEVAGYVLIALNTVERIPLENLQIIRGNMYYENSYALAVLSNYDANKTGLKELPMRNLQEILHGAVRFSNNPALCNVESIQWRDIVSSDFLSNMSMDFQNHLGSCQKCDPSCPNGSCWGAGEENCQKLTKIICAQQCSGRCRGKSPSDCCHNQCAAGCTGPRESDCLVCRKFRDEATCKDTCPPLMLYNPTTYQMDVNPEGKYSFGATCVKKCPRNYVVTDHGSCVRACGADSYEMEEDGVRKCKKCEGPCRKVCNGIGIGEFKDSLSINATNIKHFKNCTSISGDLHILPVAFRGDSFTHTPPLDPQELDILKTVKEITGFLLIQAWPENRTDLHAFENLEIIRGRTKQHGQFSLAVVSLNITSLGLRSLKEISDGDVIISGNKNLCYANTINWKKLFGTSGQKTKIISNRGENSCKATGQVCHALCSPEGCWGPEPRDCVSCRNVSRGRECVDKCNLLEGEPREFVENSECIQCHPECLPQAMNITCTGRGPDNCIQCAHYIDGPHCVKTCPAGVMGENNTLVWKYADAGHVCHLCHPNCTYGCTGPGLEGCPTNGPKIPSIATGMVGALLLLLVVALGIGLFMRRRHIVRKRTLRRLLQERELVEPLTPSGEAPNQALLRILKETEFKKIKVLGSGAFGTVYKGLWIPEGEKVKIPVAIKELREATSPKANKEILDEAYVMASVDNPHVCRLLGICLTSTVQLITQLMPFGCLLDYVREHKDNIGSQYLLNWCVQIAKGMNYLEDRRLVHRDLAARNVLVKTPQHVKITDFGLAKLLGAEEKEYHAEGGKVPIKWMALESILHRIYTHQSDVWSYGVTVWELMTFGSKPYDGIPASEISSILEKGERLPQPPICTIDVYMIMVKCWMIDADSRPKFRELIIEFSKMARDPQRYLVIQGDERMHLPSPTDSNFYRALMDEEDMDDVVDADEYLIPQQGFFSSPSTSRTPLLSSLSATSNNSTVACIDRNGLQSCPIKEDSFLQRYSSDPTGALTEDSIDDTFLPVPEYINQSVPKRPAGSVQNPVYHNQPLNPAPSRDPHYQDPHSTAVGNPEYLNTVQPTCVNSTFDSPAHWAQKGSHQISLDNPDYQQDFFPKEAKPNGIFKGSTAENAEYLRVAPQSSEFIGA
# T2 sequence (P00533 25-1210 T790M/L858R): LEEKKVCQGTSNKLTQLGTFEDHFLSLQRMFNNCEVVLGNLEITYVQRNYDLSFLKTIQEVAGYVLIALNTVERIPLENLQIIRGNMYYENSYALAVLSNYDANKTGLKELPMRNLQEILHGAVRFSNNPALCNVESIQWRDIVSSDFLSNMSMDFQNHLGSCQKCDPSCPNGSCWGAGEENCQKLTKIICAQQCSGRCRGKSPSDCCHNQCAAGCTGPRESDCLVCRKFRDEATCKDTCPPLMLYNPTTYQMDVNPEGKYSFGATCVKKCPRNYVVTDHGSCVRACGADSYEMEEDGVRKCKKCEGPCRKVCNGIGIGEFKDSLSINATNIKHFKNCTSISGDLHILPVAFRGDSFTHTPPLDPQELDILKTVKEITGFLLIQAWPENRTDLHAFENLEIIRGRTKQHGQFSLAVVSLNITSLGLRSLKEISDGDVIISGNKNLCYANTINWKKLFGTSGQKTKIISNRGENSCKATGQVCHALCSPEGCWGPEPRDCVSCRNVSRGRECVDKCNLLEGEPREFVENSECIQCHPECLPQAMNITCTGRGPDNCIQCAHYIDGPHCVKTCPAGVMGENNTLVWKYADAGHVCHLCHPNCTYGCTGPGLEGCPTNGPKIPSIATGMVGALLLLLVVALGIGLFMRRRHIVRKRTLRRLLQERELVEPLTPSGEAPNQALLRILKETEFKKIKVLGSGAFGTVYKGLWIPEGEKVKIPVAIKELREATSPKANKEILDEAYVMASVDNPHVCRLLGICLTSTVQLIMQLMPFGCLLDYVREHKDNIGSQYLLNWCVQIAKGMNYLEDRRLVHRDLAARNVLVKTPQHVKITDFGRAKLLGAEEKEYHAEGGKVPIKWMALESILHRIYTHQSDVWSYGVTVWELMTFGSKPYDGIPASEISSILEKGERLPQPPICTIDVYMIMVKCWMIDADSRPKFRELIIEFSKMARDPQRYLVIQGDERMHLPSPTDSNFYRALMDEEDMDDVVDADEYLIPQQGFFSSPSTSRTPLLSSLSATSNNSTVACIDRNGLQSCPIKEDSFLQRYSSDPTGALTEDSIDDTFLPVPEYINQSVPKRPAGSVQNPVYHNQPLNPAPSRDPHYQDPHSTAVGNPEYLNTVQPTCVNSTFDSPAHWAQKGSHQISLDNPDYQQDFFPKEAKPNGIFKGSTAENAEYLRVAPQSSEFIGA
"IC50 [1, 7]","IC50 [2, 8]","IC50 [3, 9]",IC50 (PC-9 cells),IC50 (NCI-H1975 cells),IC50 (HCC827 cells),IC50 [4],IC50 [5],IC50 [6],"IC50 ([1]; read-out: PC-9 pEGFR IC50, 4 hours at 37° C.)","IC50 ([2]; read-out: H1975 pEGFR IC50, 4 hours at 37° C.)","IC50 ([3]; read-out: A431 pEGFR IC50, 4 hours at 37° C., 40 ng/mL EGF for the final 10 minutes)",Compound
,,,3.52 nM,1.76 nM,0.71 nM,0.93 nM,0.09 nM,1.23 nM,2.31 nM,1.55 nM,17.8 nM,"CCNc1nn([C@@H](C)CO)c2c1/C=C/c1n[nH]c3c(C)nc(cc13)-c1c(C)nn(C)c1O[C@@H](C)CN(C)C2 [Ex. 94, (2S)-2-[(10S,17E)-16-(ethylamino)-6,8,10,12,20-pentamethyl-2,8,10,11,12,13-hexahydro-14H-5,3-(azenometheno)tripyrazolo[3,4-f:3′,4′-j:4″,3″-n][1,4]oxazacyclopentadecin-14-yl]propan-1-ol]"
3.35 nM,1.76 nM,17.7 nM,5.19 nM,2.86 nM,1.15 nM,0.74 nM,0.13 nM,2.14 nM,,,,"CCOc1nn([C@H](C)CO)c2c1/C=C/c1n[nH]c3c(C)nc(cc13)-c1c(C)nn(C)c1O[C@@H](C)CN(C)C2 [Ex. 95, (2R)-2-[(10S,17E)-16-ethoxy-6,8,10,12,20-pentamethyl-2,8,10,11,12,13-hexahydro-14H-5,3-(azenometheno)tripyrazolo[3,4-f:3′,4′-j:4″,3″-n][1,4]oxazacyclopentadecin-14-yl]propan-1-ol]"
3.62 nM,1.9 nM,16.8 nM,5.71 nM,3.34 nM,1.35 nM,0.74 nM,0.24 nM,1.01 nM,,,,CCOc1nn([C@@H](C)CO)c2c1/C=C/c1n[nH]c3c(C)nc(cc13)-c1c(C)nn(C)c1O[C@H](C)CN(C)C2 [Ex. 98]
4.17 nM,2.68 nM,34.7 nM,8.86 nM,3.6 nM,1.05 nM,1.37 nM,0.2 nM,4.36 nM,,,,"CNc1nn([C@@H](C)CO)c2c1/C=C/c1n[nH]c3c(C)nc(cc13)-c1c(C)nn(C)c1O[C@@H](C)CN(C)C2 [Ex. 101, (2S)-2-[(10S,17E)-6,8,10,12,20-pentamethyl-16-(methylamino)-2,8,10,11,12,13-hexahydro-14H-5,3-(azenometheno)tripyrazolo[3,4-f:3′,4′-j:4″,3″-n][1,4]oxazacyclopentadecin-14-yl]propan-1-ol]"

# The next lines start with the compound.
Compound,"IC50 [1, 7]","IC50 [2, 8]","IC50 [3, 9]",IC50 (PC-9 cells),IC50 (NCI-H1975 cells),IC50 (HCC827 cells),IC50 [4],IC50 [5],IC50 [6],"IC50 ([1]; read-out: PC-9 pEGFR IC50, 4 hours at 37° C.)","IC50 ([2]; read-out: H1975 pEGFR IC50, 4 hours at 37° C.)","IC50 ([3]; read-out: A431 pEGFR IC50, 4 hours at 37° C., 40 ng/mL EGF for the final 10 minutes)"
"CCNc1nn([C@@H](C)CO)c2c1/C=C/c1n[nH]c3cnc(cc13)-c1c(C)nn(C)c1O[C@@H](C)CN(C)C2 [Ex. 93, (2S)-2-[(10S,17E)-16-(ethylamino)-6,8,10,12-tetramethyl-2,8,10,11,12,13-hexahydro-14H-5,3-(azenometheno)tripyrazolo[3,4-f:3′,4′-j:4″,3″-n][1,4]oxazacyclopentadecin-14-yl]propan-1-ol]",2.05 nM,3.54 nM,19.6 nM,1.98 nM,2 nM,0.51 nM,1.65 nM,0.13 nM,1.8 nM,,,
"CCOc1nn([C@@H](C)CO)c2c1/C=C/c1n[nH]c3cnc(cc13)-c1c(C)nn(C)c1OC[C@@H](C)N(C)C2 [Ex. 97, (2S)-2-[(11R,17E)-16-ethoxy-6,8,11,12-tetramethyl-2,8,10,11,12,13-hexahydro-14H-5,3-(azenometheno)tripyrazolo[3,4-f:3′,4′-j:4″,3″-n][1,4]oxazacyclopentadecin-14-yl]propan-1-ol]",1.08 nM,1.62 nM,11 nM,1.39 nM,1.77 nM,0.2 nM,0.43 nM,0.04 nM,0.4 nM,,,
"Cc1nn(C)c2c1/C=C/c1n[nH]c3c(C)nc(cc13)-c1c(C)nn(C)c1O[C@@H](C)CN(C)C2 [Ex. 103, (10S,17E)-6,8,10,12,14,16,20-heptamethyl-2,10,11,12,13,14-hexahydro-8H-5,3-(azenometheno)tripyrazolo[3,4-f:3′,4′-j:4″,3″-n][1,4]oxazacyclopentadecine]",9.78 nM,3.44 nM,13.4 nM,9.94 nM,11.2 nM,2.13 nM,1.87 nM,0.56 nM,13.6 nM,,,
